# Literature values, collected in publication PMC9762682, “Tocotrienols: Exciting Biological and Pharmacological Properties of Tocotrienols and Naturally Occurring Compounds, Part II” (Annals of clinical case reports, 2022).
# Where two headings read alike, the source gives them in different places. Marks after values point to notes of the source that are not given here.
# Tests used:
# [1] = parameters: method as in ref 14 = [14]; PMID 27493840; doi:10.4172/2155-9880.1000434; 14. Qureshi AA , Khan DA , Saleem S , Silswal N , Trias AM , Tan B , Pharmacokinetics and bioavailability of Annatto δ-tocotrienol in healthy fed subjects . J Clin Exp Cardiol . 2015; 6 : 11 . 10.417
# [2] = parameters: method as in ref 16 = [16]; PMID 27493840; doi:10.4172/2155-9880.1000434; 16. Qureshi AA , Khan DA , Silswal N , Saleem S , Qureshi N . Evaluation of pharmacokinetics and bioavailability of higher doses of δ-tocotrienol in healthy fed humans . J Clin Exp Cardiol . 2016; 7
# Liver cancer cells = test system: Liver cancer cells; parameters: method as in PMID 29606130; value at effective dose: unit not given here
# Breast cancer cells = test system: Breast cancer cells; parameters: method as in PMID 29606130; value at effective dose: unit not given here;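 as to IC50: anti-proliferation of cancer cells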
# [3] = test system: plasma total mRNAs gene expression; parameters: method as in PMID 30031388
# [4] = plasma tocol after single 125 mg δ-tocotrienol dose, healthy fed subjects
# [5] = plasma tocol after single 125 mg δ-tocotrienol dose, healthy fed subjects, listed as δ-tocotrienol
# [6] = plasma tocol after single 250 mg δ-tocotrienol dose, healthy fed subjects
# [7] = plasma tocol after single 250 mg δ-tocotrienol dose, healthy fed subjects, listed as δ-tocotrienol
# [8] = plasma tocol after single 500 mg δ-tocotrienol dose, healthy fed subjects
# [9] = plasma tocol after single 500 mg δ-tocotrienol dose, healthy fed subjects, listed as δ-tocotrienol
# [10] = plasma tocol after single dose 750 mg δ-tocotrienol
# [11] = plasma tocol after single dose 750 mg δ-tocotrienol, listed as δ-tocotrienol
# [12] = plasma tocol after single dose 1000 mg δ-tocotrienol
# [13] = plasma tocol after single dose 1000 mg δ-tocotrienol, listed as δ-tocotrienol
# [14] = hepatitis C patients, plasma total mRNAs, pre-dose vs post-dose
smiles,measurement,setting,value
CC(C)=CCC/C(C)=C/CC/C(C)=C/CC[C@]1(C)CCc2cc(O)cc(C)c2O1 [δ-Tocotrienol],Time of clearance (Cl-T),[1]; 125 mg/d Annatto δ-tocotrienol,0.049 h⁻¹
same,Time of clearance (Cl-T),[1]; 250 mg/d Annatto δ-tocotrienol,0.045 h⁻¹
same,Time of clearance (Cl-T),[1]; 500 mg/d Annatto δ-tocotrienol,0.030 h⁻¹
same,time of appearance in the plasma,[1]; after δ-tocotrienol administration to well-fed subjects,> 2 h
same,Apparent volume of distribution (Vd/f),[1]; [4],0.179 ± 0.035^a
same,Elimination of Half-life time (t1/2),[1]; [4],1.74 ± 0.36^a h
same,Elimination rate constant (ke),[1]; [4],0.381 ± 0.059^a h-1
same,Plasma Peak Concentration (Cmax),[1]; [4],828.82 ± 24.28^a ng/mL
same,Time of clearance (Cl-T),[1]; [4],0.049 ± 0.004^a I/h
same,Time to achieve plasma peak (Tmax),[1]; [4],3.00 h
same,Area Under Curve-0 - 10 (AUC0-10),[1]; [5],2460 ng·h/mL
same,Plasma Peak Concentration (Cmax),[1]; [5],829 ng/mL
same,Apparent volume of distribution (Vd/f),[1]; [6],0.114 ± 0.011^b
same,Elimination of Half-life time (t1/2),[1]; [6],1.39 ± 0.22^a h
same,Elimination rate constant (ke),[1]; [6],0.401 ± 0.039^b h-1
same,Plasma Peak Concentration (Cmax),[1]; [6],1920.36 ± 57.99^b ng/mL
same,Time of clearance (Cl-T),[1]; [6],0.045 ± 0.002^a I/h
same,Time to achieve plasma peak (Tmax),[1]; [6],3.00 h
same,Area Under Curve-0 - 10 (AUC0-10),[1]; [7],5410 ng·h/mL
same,Plasma Peak Concentration (Cmax),[1]; [7],1920 ng/mL
same,Apparent volume of distribution (Vd/f),[1]; [8],0.613 ± 0.102^c
same,Elimination of Half-life time (t1/2),[1]; [8],2.54 ± 0.05^b h
same,Elimination rate constant (ke),[1]; [8],0.050 ± 0.008^c h-1
same,Plasma Peak Concentration (Cmax),[1]; [8],3278.00 ± 124.13^c ng/mL
same,Time of clearance (Cl-T),[1]; [8],0.030 ± 0.001^b I/h
same,Area Under Curve-0 - 10 (AUC0-10),[1]; [9],15000 ng·h/mL
same,Elimination rate constant (ke),[1]; [9],0.265 h⁻¹
same,Time to achieve plasma peak (Tmax),[1]; [9],6 h
same,bioavailability,[1]; when tocotrienols are supplemented in absence of tocopherols,better bioavailability
same,plasma tocol level,"[2]; 0 Hr., single dose 750 mg δ-tocotrienol",132 ± 12 ng/mL
same,plasma tocol level,"[2]; 0 Hr., single dose 1000 mg δ-tocotrienol",360 ± 20 ng/mL
same,Time of clearance (Cl-T),[2]; 750 mg/d,0.086 h⁻¹
same,Time of clearance (Cl-T),[2]; 1000 mg/d,0.078 h⁻¹
same,plasma tocol level,"[2]; 1 hr., single dose 750 mg δ-tocotrienol",310 ± 28 ng/mL
same,plasma tocol level,"[2]; 1 hr., single dose 1000 mg δ-tocotrienol",993 ± 33 ng/mL
same,plasma tocol level,"[2]; 2 hr., single dose 750 mg δ-tocotrienol",877 ± 24 ng/mL
same,plasma tocol level,"[2]; 2 hr., single dose 1000 mg δ-tocotrienol",1593 ± 44 ng/mL
same,plasma tocol level,"[2]; 4 hr., single dose 750 mg δ-tocotrienol",1444 ± 53 ng/mL
same,plasma tocol level,"[2]; 4 hr., single dose 1000 mg δ-tocotrienol",884 ± 45 ng/mL
same,plasma tocol level,"[2]; 6 hr., single dose 750 mg δ-tocotrienol",759 ± 30 ng/mL
same,plasma tocol level,"[2]; 6 hr., single dose 1000 mg δ-tocotrienol",562 ± 47 ng/mL
same,plasma tocol level,"[2]; 8 hr., single dose 750 mg δ-tocotrienol",523 ± 13 ng/mL
same,Area Under the Curve-t0 - t8 (AUC0-8),[2]; [10],6620.87 ± 49.67^a ^* ng/ml
same,Area Under the Curve-t0 - ∞ (AUC0-∞),[2]; [10],8687.69 ± 201.01^a ^* ng/ml
same,Elimination of Half-life time (t1/2),[2]; [10],2.74 ± 0.13^a h
same,Elimination rate constant (ke),[2]; [10],0.253 ± 0.167^a h-1
same,Peak Plasma Concentration (Cmax),[2]; [10],1444.23 ± 53.07^a ng/ml
same,Time of clearance (Cl-T),[2]; [10],0.086 ± 0.002^a I/h
same,Time to achieve plasma peak (Tmax),[2]; [10],4.00^a h
same,Area Under the Curve-t0 - t8 (AUC0-8),[2]; [11],6620 ng·h/mL
same,Area Under the Curve-t0 - ∞ (AUC0-∞),[2]; [11],8690 ng·h/mL
same,Elimination rate constant (ke),[2]; [11],0.25 h⁻¹
same,Peak Plasma Concentration (Cmax),[2]; [11],1444 ng/mL
same,Area Under the Curve-t0 - t8 (AUC0-8),[2]; [12],7450.10 ± 89.01^a ^* ng/ml
same,Area Under the Curve-t0 - ∞ (AUC0-∞),[2]; [12],9633.18 ± 382.98^a ^* ng/ml
same,Elimination of Half-life time (t1/2),[2]; [12],2.68 ± 0.29^a h
same,Elimination rate constant (ke),[2]; [12],0.260 ± 0.143^a h-1
same,Peak Plasma Concentration (Cmax),[2]; [12],1591.89 ± 43.97^a ng/ml
same,Time of clearance (Cl-T),[2]; [12],0.078 ± 0.003^a I/h
same,Time to achieve plasma peak (Tmax),[2]; [12],4.00^a h
same,Area Under the Curve-t0 - t8 (AUC0-8),[2]; [13],7450 ng·h/mL
same,Area Under the Curve-t0 - ∞ (AUC0-∞),[2]; [13],9630 ng·h/mL
same,Peak Plasma Concentration (Cmax),[2]; [13],1592 ng/mL
same,Total tocols (sum of 0-8 h),[2]; single dose 750 mg δ-tocotrienol,4045 ng/mL
same,IC50,Liver cancer cells,20 µM
same,percentage of control at IC50 dose,Liver cancer cells,53%
same,effective dose,Liver cancer cells; 48 h,20 µM
same,percentage of control at effective dose,Liver cancer cells; 48 h,24%
same,value at effective dose,Liver cancer cells; 48 h,17.7 ± 2.1
same,IC50,Breast cancer cells,10 µM
same,effective dose,Breast cancer cells,20 µM
same,percentage of control at IC50 dose,Breast cancer cells,49%
same,percentage of control at effective dose,Breast cancer cells,56%
same,value at effective dose,Breast cancer cells,10.7 ± 0.6
same,side effects in hepatitis C patients,[3]; chronic hepatitis C patients,without any side-effect
same,Expr. Fold Change: AKR1D1,[3]; [14],14.056
same,Expr. Fold Change: APOBEC3A,[3]; [14],−8.163
same,Expr. Fold Change: ATF4,[3]; [14],−9.515
same,Expr. Fold Change: ATG3,[3]; [14],−8.376
same,Expr. Fold Change: ATP1A1,[3]; [14],−8.014
same,Expr. Fold Change: CERS3,[3]; [14],19.082
same,Expr. Fold Change: COX14,[3]; [14],−9.447
same,Expr. Fold Change: CREB1,[3]; [14],−8.452
same,Expr. Fold Change: CXCR2,[3]; [14],−8.208
same,Expr. Fold Change: CYB5R4,[3]; [14],−8.367
same,Expr. Fold Change: CYP2R1,[3]; [14],−8.682
same,Expr. Fold Change: FRS2,[3]; [14],−9.962
same,Expr. Fold Change: GPR65,[3]; [14],−9.054
same,Expr. Fold Change: GPS2,[3]; [14],−9.56
same,Expr. Fold Change: GTPBP8,[3]; [14],−10.19
same,Expr. Fold Change: GYS1,[3]; [14],−9.027
same,Expr. Fold Change: HBG1,[3]; [14],17.945
same,Expr. Fold Change: HBG2,[3]; [14],11.413
same,Expr. Fold Change: HHIPL2,[3]; [14],28.710
same,Expr. Fold Change: HIST1H2AD,[3]; [14],1804955.068
same,Expr. Fold Change: HSP90AB1,[3]; [14],−8.049
same,Expr. Fold Change: HSPA14,[3]; [14],−10.978
same,Expr. Fold Change: ID2,[3]; [14],−14.133
same,Expr. Fold Change: IFNGR2,[3]; [14],−13.844
same,Expr. Fold Change: IGF2R,[3]; [14],−8.68
same,Expr. Fold Change: IGSF6,[3]; [14],−8.712
same,Expr. Fold Change: IL2RG,[3]; [14],−16.787
same,Expr. Fold Change: IL16,[3]; [14],−8.239
same,Expr. Fold Change: IL27RA,[3]; [14],−12.004
same,Expr. Fold Change: ILF2,[3]; [14],−9.105
same,Expr. Fold Change: IRF2,[3]; [14],−22.655
same,Expr. Fold Change: KLRC4-KLRK1/KLRK1,[3]; [14],−1565687.642
same,Expr. Fold Change: MKX,[3]; [14],9.573
same,Expr. Fold Change: MT-TQ,[3]; [14],14.252
same,Expr. Fold Change: NDUFA11,[3]; [14],−8.686
same,Expr. Fold Change: NDUFB1,[3]; [14],−8.566
same,Expr. Fold Change: NDUFB9,[3]; [14],−8.354
same,Expr. Fold Change: NFIL3,[3]; [14],−9.568
same,Expr. Fold Change: OSBPL11,[3]; [14],−9.201
same,Expr. Fold Change: P4HA3,[3]; [14],8.686
same,Expr. Fold Change: PDE3B,[3]; [14],−8.568
same,Expr. Fold Change: PECAM1,[3]; [14],−9.552
same,Expr. Fold Change: PIAS1,[3]; [14],−9.326
same,Expr. Fold Change: PIBF1,[3]; [14],−9.876
same,Expr. Fold Change: PRPF18,[3]; [14],−8.777
same,Expr. Fold Change: PSMA5,[3]; [14],−9.31
same,Expr. Fold Change: PSMB4,[3]; [14],−10.119
same,Expr. Fold Change: PSMB8,[3]; [14],−9.709
same,Expr. Fold Change: PSMC3,[3]; [14],−8.346
same,Expr. Fold Change: PTGS2,[3]; [14],−25.841
same,Expr. Fold Change: RAP2C,[3]; [14],−9.792
same,Expr. Fold Change: RPP38,[3]; [14],24.946
same,Expr. Fold Change: RPS26,[3]; [14],−9.456
same,Expr. Fold Change: SCP2,[3]; [14],−13.672
same,Expr. Fold Change: SERP1,[3]; [14],−8.872
same,Expr. Fold Change: SFPQ,[3]; [14],−9.469
same,Expr. Fold Change: TLR8,[3]; [14],−11.975
same,Expr. Fold Change: TNFAIP8,[3]; [14],−10.974
same,Expr. Fold Change: TNFRSF1B,[3]; [14],−8.746
same,Expr. Fold Change: TRAF7,[3]; [14],−9.341
same,Expr. Fold Change: TSPAN15,[3]; [14],11.523
same,Expr. Fold Change: TUSC2,[3]; [14],−15.922
same,Expr. Fold Change: UBA52,[3]; [14],−10.176
same,Expr. Fold Change: UBE2J1,[3]; [14],−8.874
same,Expr. Fold Change: UBE4A,[3]; [14],−10.189
same,Expr. Fold Change: UBP1,[3]; [14],−9.718
same,Expr. Fold Change: USP15,[3]; [14],−10.16
same,Expr. Fold Change: USP19,[3]; [14],−10.713
same,Expr. Fold Change: USP25,[3]; [14],−9.911
same,Expr. Fold Change: VEGFA,[3]; [14],−8.933
same,Expr. Fold Change: mir-140,[3]; [14],−5668.259
same,Expr. Fold Change: mir-877,[3]; [14],−4497.07
same,Expr. Fold Change: mir-1250,[3]; [14],−4755.79
same,"expression of pro-inflammatory cytokines (TNF-α, VCAM1, proteasome subunits)",[3]; plasma total mRNAs after δ-tocotrienol feeding to hepatitis C patients,significant inhibition
same,expression of ICAM1 and IFN-γ,"[3]; plasma total mRNAs after δ-tocotrienol feeding to hepatitis C patients, post-treatment",induction
